{
  "source": "patent US20080214675A1",
  "about": "“Hydroxybenzoic Acid Amides and the Use Thereof For Masking Bitter Taste” (SYMRISE GMBH & CO. KG, priority 2004, published 2008)",
  "key": {"[1]": {"conditions": "examined in the context of various sweeteners; cited from earlier work"}, "[2]": {"assay": "Bitterness reduction in a bitter principle solution (expert panel rating)", "type": "in vivo", "conditions": "for % reduction in bitterness impression / Testers positive (number of testers who could detect a masking effect) / Bitterness impression (1-10) with: 500 ppm caffeine; for Bitterness impression (1-10) with: error = 95% confidence interval", "protocol": "To quantify the reduction in the bitterness impression, the bitterness of a 500 ppm caffeine or salicin solution and a sample containing 500 ppm of caffeine or salicin and a varying amount of the exemplary compound was determined by a group of experts (rating 0 [not bitter] to 10 [extremely bitter]). The evaluation was made as a calculation of the reduction (in %) of the bitterness impression from the average values for the ratings of the caffeine or salicin solution and the solutions containing caffeine or salicin and the exemplary compound. 2,4-Dihydroxybenzoic acid (2,4-DHB) from U.S. Pat. No. 5,643,941 was used as a comparison."}, "[3]": {"assay": "Strengthening the sweetness of a sugar solution (expert panel rating)", "type": "in vivo", "conditions": "5% sucrose; for Sweetness impression (1-10) with: error = standard deviation", "protocol": "To quantify the strengthening of the sweetness impression, the sweetness of a 5% sucrose solution and a sample containing […] and an amount of the exemplary compound was determined by a group of experts (rating 0 [not sweet] to 10 [extremely sweet]). The evaluation was made as a calculation of the strengthening (in %) of the sweetness impression from the average values for the ratings of the sucrose solution and the solutions containing sucrose and the exemplary compound. Vanillin was used as a comparison as a typical aromatic substance described as sweet."}, "[4]": {"assay": "Strengthening the sweetness of a yogurt (expert panel rating)", "type": "in vivo", "protocol": "To quantify the strengthening of the sweetness impression, the sweetness of a low-fat (0.1%) commercial yogurt (Optiwell) containing 5% sucrose and of a sample containing […] and an amount of the exemplary compound was determined by a group of experts (rating 0 [not sweet] to 10 [extremely sweet]). The evaluation was made as a calculation of the strengthening (in %) of the sweetness impression from the average values for the ratings of the yogurt containing sucrose and the yogurt containing sucrose and the exemplary compound."}, "[5]": {"conditions": "200 ppm substance, 5% sucrose, low-fat yogurt"}},
  "note": "Structures can show the parent of a compound that is named as a salt.",
  "data": [
    {"compound": "COc1ccc(CNC(=O)c2c(O)cc(O)cc2O)cc1O", "note": "[2,4,6-trihydroxybenzoic acid-N-(3-hydroxy-4-methoxybenzyl)amide]", "values": [
      {"measurement": "taste", "setting": "[1]", "value": "tasteless"}
    ]},
    {"compound": "O=C(O)c1ccc(O)cc1O", "note": "[2,4-DHB, 2,4-Dihydroxybenzoic acid, reference compound]", "values": [
      {"measurement": "% reduction in bitterness impression", "setting": "[2]; 100 ppm substance", "value": 3, "unit": "%"},
      {"measurement": "Testers positive (number of testers who could detect a masking effect)", "setting": "[2]; 100 ppm substance", "value": 9},
      {"measurement": "Bitterness impression (1-10) with", "setting": "[2]; 100 ppm substance", "value": "5.0 ± 1.0"}
    ]},
    {"compound": "COc1cc(CNC(=O)c2ccc(O)cc2O)ccc1O", "note": "[Example 1, 2,4-dihydroxybenzoic acid-N-(4-hydroxy-3-methoxybenzyl)amide]", "values": [
      {"measurement": "% reduction in bitterness impression", "setting": "[2]; 20 ppm substance", "value": "29%, p < 0.05"},
      {"measurement": "Testers positive (number of testers who could detect a masking effect)", "setting": "[2]; 20 ppm substance", "value": 11},
      {"measurement": "Bitterness impression (1-10) with", "setting": "[2]; 20 ppm substance", "value": "4.5 ± 0.6"},
      {"measurement": "% strengthening of sweetness impression", "setting": "[3]; 100 ppm substance", "value": 7.2, "unit": "%"},
      {"measurement": "Testers positive (number of testers who could detect a strengthening effect)", "setting": "[3]; 100 ppm substance", "value": 7},
      {"measurement": "Sweetness impression (1-10) with", "setting": "[3]; 100 ppm substance", "value": "5.6 ± 1.7"},
      {"measurement": "% strengthening of sweetness impression", "setting": "[4]; [5]", "value": 26.5, "unit": "%"},
      {"measurement": "Testers positive (number of testers who could detect a strengthening effect)", "setting": "[4]; [5]", "value": 12},
      {"measurement": "Sweetness impression (1-10) with", "setting": "[4]; 200 ppm substance, 5% sucrose, low-fat yogurt, error = standard deviation", "value": "5.4 ± 1.5"},
      {"measurement": "descriptors of the yogurt", "setting": "[4]; yogurt containing the compound", "value": "more fullness, less acidic, soft, creamy"},
      {"measurement": "preference of the yogurt", "setting": "[4]; yogurt containing the compound vs yogurt with sucrose only", "value": "preferred"}
    ]},
    {"compound": "COc1cc(CNC(=O)c2c(O)cc(O)cc2O)ccc1O", "note": "[Example 2, 2,4,6-Trihydroxybenzoic acid-N-(4-hydroxy-3-methoxybenzyl)amide]", "values": [
      {"measurement": "% reduction in bitterness impression", "setting": "[2]; 100 ppm substance", "value": "24%, p < 0.05"},
      {"measurement": "Testers positive (number of testers who could detect a masking effect)", "setting": "[2]; 100 ppm substance", "value": 8},
      {"measurement": "Bitterness impression (1-10) with", "setting": "[2]; 100 ppm substance", "value": "5.1 ± 0.9"}
    ]},
    {"compound": "COc1cc(CNC(=O)c2ccccc2O)ccc1O", "note": "[Example 3, 2-Hydroxybenzoic acid-N-(4-hydroxy-3-methoxybenzyl)amide]", "values": [
      {"measurement": "% reduction in bitterness impression", "setting": "[2]; 100 ppm substance", "value": "23%, p < 0.05"},
      {"measurement": "Testers positive (number of testers who could detect a masking effect)", "setting": "[2]; 100 ppm substance", "value": 12},
      {"measurement": "Bitterness impression (1-10) with", "setting": "[2]; 100 ppm substance", "value": "4.1 ± 0.9"}
    ]},
    {"compound": "COc1cc(CNC(=O)c2ccc(O)cc2)ccc1O", "note": "[Example 4, 4-Hydroxybenzoic acid-N-(4-hydroxy-3-methoxybenzyl)amide]", "values": [
      {"measurement": "% reduction in bitterness impression", "setting": "[2]; 100 ppm substance", "value": "26%, p < 0.05"},
      {"measurement": "Testers positive (number of testers who could detect a masking effect)", "setting": "[2]; 100 ppm substance", "value": 9},
      {"measurement": "Bitterness impression (1-10) with", "setting": "[2]; 100 ppm substance", "value": "4.5 ± 0.5"}
    ]},
    {"compound": "COc1cc(CNC(=O)c2ccc(O)cc2O)ccc1O", "note": "[Example 5, 2,4-Dihydroxybenzoic acid-N-4-hydroxy-3-methoxybenzylamide monosodium salt]", "values": [
      {"measurement": "% reduction in bitterness impression", "setting": "[2]; 100 ppm substance", "value": "32%, p < 0.05"},
      {"measurement": "Testers positive (number of testers who could detect a masking effect)", "setting": "[2]; 100 ppm substance", "value": 13},
      {"measurement": "Bitterness impression (1-10) with", "setting": "[2]; 100 ppm substance", "value": "4.1 ± 1.0"}
    ]},
    {"compound": "COc1cc(CCNC(=O)c2ccc(O)cc2O)ccc1O", "note": "[Example 6, 2,4-Dihydroxybenzoic acid-N-2-(4-hydroxy-3-methoxyphenyl)ethylamide]", "values": [
      {"measurement": "% reduction in bitterness impression", "setting": "[2]; 100 ppm substance", "value": "20%, p < 0.05"},
      {"measurement": "Testers positive (number of testers who could detect a masking effect)", "setting": "[2]; 100 ppm substance", "value": 9},
      {"measurement": "Bitterness impression (1-10) with", "setting": "[2]; 100 ppm substance", "value": "3.7 ± 0.8"}
    ]},
    {"compound": "COc1ccc(CNC(=O)c2ccc(O)cc2O)cc1O", "note": "[Example 9, 2,4-Dihydroxybenzoic acid-N-3-hydroxy-4-methoxybenzylamide, reference compound]", "values": [
      {"measurement": "% reduction in bitterness impression", "setting": "[2]; 100 ppm substance", "value": 11, "unit": "%"},
      {"measurement": "Bitterness impression (1-10) with", "setting": "[2]; 100 ppm substance", "value": "3.9 ± 0.8"},
      {"measurement": "change in the bitterness impression (bitterness-masking effect)", "setting": "[2]; application example 1", "value": "No statistically significant change"}
    ]},
    {"compound": "COc1cc(C=O)ccc1O", "note": "[vanillin, Vanillin, reference compound]", "values": [
      {"measurement": "% strengthening of sweetness impression", "setting": "[3]; 600 ppb substance", "value": "−3", "unit": "%"},
      {"measurement": "Testers positive (number of testers who could detect a strengthening effect)", "setting": "[3]; 600 ppb substance", "value": 5},
      {"measurement": "Sweetness impression (1-10) with", "setting": "[3]; 600 ppb substance", "value": "6.0 ± 1.1"}
    ]}
  ]
}
